ChEMBL document CHEMBL1201862, “PubChem BioAssay data set” (2004)
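Step 1: Grow cells in 96-well plates. Step 2: Expose to compound for 48 hours at 5 concentrations. Step 3: Interpolate endpoints linearly; if unreached, use highest concentration. GI50 marks 50% less growth.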 Activity calls are given as the source filed them. No stated cut-off is given here; in the data, active = GI50 up to about 1.1 µM and inactive = higher.

How the values were obtained:
Assay in all cases: NCI-60 cell line screen, 48 h
MOLT-4 = tested on: MOLT-4
SNB-19 = tested on: SNB-19
A549 = tested on: A549
ACHN = tested on: ACHN
MDA-MB-231 = tested on: MDA-MB-231
OVCAR-3 = tested on: OVCAR-3
SF-539 = tested on: SF-539
SN12C = tested on: SN12C
NCI/ADR-RES = tested on: NCI/ADR-RES
HOP-62 = tested on: HOP-62
LOX IMVI = tested on: LOX IMVI
OVCAR-5 = tested on: OVCAR-5
OVCAR-8 = tested on: OVCAR-8
EKVX = tested on: EKVX
RPMI-8226 = tested on: RPMI-8226
HL-60 = tested on: HL-60
DU-145 = tested on: DU-145
MDA-MB-435 = tested on: MDA-MB-435
SK-OV-3 = tested on: SK-OV-3
UACC-62 = tested on: UACC-62

Measured: GI50

NC(Cc1ccc(O)cn1)C(=O)NC(C(=O)O)c1ccccc1 (stereo unspecified)
inactive: MOLT-4 > 100 µM | SNB-19 > 100 µM | A549 > 100 µM | ACHN > 100 µM | MDA-MB-231 > 100 µM | OVCAR-3 > 100 µM | SF-539 > 100 µM | SN12C > 100 µM | NCI/ADR-RES > 100 µM | HOP-62 > 100 µM | LOX IMVI > 100 µM | OVCAR-5 > 100 µM | OVCAR-8 > 100 µM | EKVX > 100 µM | RPMI-8226 > 100 µM | HL-60 > 100 µM | DU-145 > 100 µM | MDA-MB-435 > 100 µM

CC1OC(O[C@H]2CC[C@]3(C)[C@H]4CC=C5[C@@H]6[C@@H](C)[C@H](C)CC[C@]6(C(=O)OC6OC(CO)C(O)C(O)C6O)CC[C@@]5(C(=O)O)[C@]4(C)CC[C@H]3C2(C)C)C(O)C(O)C1O (stereo partly specified)
inactive: SK-OV-3 > 100 µM | MOLT-4 > 100 µM | SNB-19 > 100 µM | ACHN > 100 µM | MDA-MB-231 > 100 µM | OVCAR-3 > 100 µM | SF-539 > 100 µM | UACC-62 > 100 µM | SN12C > 100 µM | NCI/ADR-RES > 100 µM | HOP-62 > 100 µM | LOX IMVI > 100 µM | OVCAR-5 > 100 µM | OVCAR-8 > 100 µM | HL-60 > 100 µM | DU-145 > 100 µM | MDA-MB-435 > 100 µM

CC(C)(C)OC(=O)N(CCCCNC(=O)C(F)(F)F)CCCNC(=O)C(F)(F)F
inactive: SK-OV-3 > 100 µM | MOLT-4 > 100 µM | SNB-19 > 100 µM | A549 > 100 µM | ACHN > 100 µM | MDA-MB-231 > 100 µM | OVCAR-3 > 100 µM | SF-539 > 100 µM | UACC-62 > 100 µM | SN12C > 100 µM | NCI/ADR-RES > 100 µM | HOP-62 > 100 µM | OVCAR-5 > 100 µM | OVCAR-8 > 100 µM | EKVX > 100 µM | RPMI-8226 > 100 µM | HL-60 87.5 µM | DU-145 > 100 µM | MDA-MB-435 > 100 µM

C=CC1(CC/C(=C\[N+](=O)[O-])c2ccc(OC)c(OC)c2)OCC(C)(C)CO1
inactive: SK-OV-3 22.4 µM | MOLT-4 1.46 µM | SNB-19 16.9 µM | A549 23.3 µM | ACHN 17.8 µM | MDA-MB-231 25.9 µM | OVCAR-3 20.6 µM | UACC-62 13.2 µM | SN12C 21 µM | NCI/ADR-RES 13.9 µM | HOP-62 18.3 µM | LOX IMVI 12.8 µM | OVCAR-5 16.1 µM | OVCAR-8 15.2 µM | EKVX 18 µM | HL-60 5.27 µM | DU-145 16.7 µM | MDA-MB-435 19.7 µM

NS(=O)(=O)c1ccc(/N=N/c2ccc(O)c(O)c2)cc1
inactive: SK-OV-3 23.3 µM | MOLT-4 3.79 µM | SNB-19 21.8 µM | A549 20.3 µM | ACHN 3.22 µM | MDA-MB-231 10.7 µM | OVCAR-3 24.3 µM | SF-539 15.9 µM | SN12C 10.4 µM | NCI/ADR-RES 16.9 µM | HOP-62 27.4 µM | LOX IMVI 15 µM | OVCAR-5 48.6 µM | OVCAR-8 4.88 µM | EKVX 46.2 µM | RPMI-8226 10.7 µM | HL-60 16.9 µM | DU-145 31 µM | MDA-MB-435 15.1 µM

COC1CCN(N(C)C)O1 (stereo unspecified)
inactive: MOLT-4 > 100 µM | SNB-19 > 100 µM | A549 > 100 µM | ACHN > 100 µM | MDA-MB-231 > 100 µM | OVCAR-3 > 100 µM | UACC-62 > 100 µM | SN12C > 100 µM | NCI/ADR-RES > 100 µM | HOP-62 > 100 µM | LOX IMVI > 100 µM | OVCAR-5 > 100 µM | OVCAR-8 > 100 µM | EKVX > 100 µM | RPMI-8226 > 100 µM | HL-60 > 100 µM | DU-145 > 100 µM | MDA-MB-435 > 100 µM

COC(=O)[C@H](Cc1c[nH]c2ccccc12)NP(=O)(O)OCC1C=CC(n2cc(C)c(=O)[nH]c2=O)O1 (stereo partly specified)
inactive: MOLT-4 > 100 µM | SNB-19 > 100 µM | MDA-MB-231 > 100 µM | OVCAR-3 > 100 µM | UACC-62 > 100 µM | SN12C > 100 µM | NCI/ADR-RES > 100 µM | HOP-62 > 100 µM | LOX IMVI > 100 µM | OVCAR-8 > 100 µM | EKVX > 100 µM | RPMI-8226 > 100 µM | HL-60 > 100 µM | DU-145 > 100 µM | MDA-MB-435 > 100 µM

CN(N=O)c1ccc(/C=C/c2ccnc3ccccc23)cc1
inactive: SK-OV-3 > 100 µM | MOLT-4 34 µM | SNB-19 46.5 µM | A549 41.6 µM | ACHN 47 µM | MDA-MB-231 88.7 µM | OVCAR-3 95.1 µM | SF-539 88.5 µM | UACC-62 50.7 µM | SN12C 37.6 µM | NCI/ADR-RES 83.4 µM | HOP-62 78.3 µM | LOX IMVI 36.3 µM | OVCAR-5 > 100 µM | OVCAR-8 58.1 µM | EKVX 26.4 µM | HL-60 92.3 µM | DU-145 61.5 µM | MDA-MB-435 > 100 µM

COC(=O)N1C2C(C[C@@]1(C)C(=O)OC)c1ccccc1N2S(=O)(=O)c1ccccc1 (stereo partly specified)
inactive: SK-OV-3 > 100 µM | MOLT-4 > 100 µM | SNB-19 > 100 µM | A549 > 100 µM | ACHN > 100 µM | MDA-MB-231 > 100 µM | OVCAR-3 > 100 µM | UACC-62 > 100 µM | NCI/ADR-RES > 100 µM | LOX IMVI > 100 µM | OVCAR-5 > 100 µM | OVCAR-8 > 100 µM | EKVX > 100 µM | RPMI-8226 > 100 µM | HL-60 > 100 µM | DU-145 > 100 µM | MDA-MB-435 > 100 µM

O=C(c1ccccc1)c1ccc2[nH]c(-c3c(Cl)c(Cl)c(Cl)c(Cl)c3C(=O)N/N=C/c3cccc(Oc4ccccc4)c3)nc2c1
inactive: SK-OV-3 > 100 µM | MOLT-4 50.4 µM | SNB-19 69.2 µM | A549 > 100 µM | ACHN > 100 µM | MDA-MB-231 > 100 µM | OVCAR-3 75.7 µM | SF-539 > 100 µM | SN12C > 100 µM | NCI/ADR-RES 95.1 µM | HOP-62 65.2 µM | LOX IMVI > 100 µM | OVCAR-5 > 100 µM | OVCAR-8 75.2 µM | EKVX > 100 µM | RPMI-8226 > 100 µM | HL-60 17.6 µM | DU-145 > 100 µM | MDA-MB-435 38.1 µM

CC#CCCN(CC#N)Cc1ccccc1
inactive: SK-OV-3 > 100 µM | MOLT-4 > 100 µM | SNB-19 > 100 µM | A549 > 100 µM | ACHN 21.3 µM | MDA-MB-231 > 100 µM | UACC-62 18.1 µM | SN12C > 100 µM | NCI/ADR-RES > 100 µM | HOP-62 > 100 µM | LOX IMVI > 100 µM | OVCAR-5 > 100 µM | OVCAR-8 > 100 µM | EKVX > 100 µM | RPMI-8226 > 100 µM | HL-60 > 100 µM | DU-145 > 100 µM | MDA-MB-435 > 100 µM

O=C(C1=CCC2(CC1)OCCO2)N(Cc1ccccc1)c1ccccc1I
inactive: SK-OV-3 32.1 µM | MOLT-4 63.8 µM | SNB-19 18.9 µM | A549 28 µM | ACHN 20.8 µM | MDA-MB-231 20 µM | OVCAR-3 21.3 µM | UACC-62 13.5 µM | SN12C 24 µM | NCI/ADR-RES 15 µM | HOP-62 22.4 µM | LOX IMVI 21.2 µM | OVCAR-5 18.1 µM | OVCAR-8 16.4 µM | EKVX 16.4 µM | RPMI-8226 24.4 µM | HL-60 18 µM | DU-145 32.8 µM | MDA-MB-435 19.7 µM

COC(=O)[C@H](Cc1c[nH]c2ccccc12)NP(=O)(OCCC#N)OCC1OC(n2cc(C)c(=O)[nH]c2=O)CC1N=[N+]=[N-] (stereo partly specified)
inactive: SK-OV-3 > 100 µM | MOLT-4 > 100 µM | SNB-19 > 100 µM | A549 > 100 µM | ACHN 50.8 µM | MDA-MB-231 > 100 µM | OVCAR-3 > 100 µM | UACC-62 > 100 µM | SN12C > 100 µM | NCI/ADR-RES > 100 µM | HOP-62 > 100 µM | LOX IMVI > 100 µM | OVCAR-5 > 100 µM | OVCAR-8 > 100 µM | EKVX > 100 µM | RPMI-8226 > 100 µM | HL-60 > 100 µM | DU-145 > 100 µM | MDA-MB-435 > 100 µM

Nc1nc(N)c2ncn(-c3ccc(Cl)cc3)c2n1
inactive: SK-OV-3 20.5 µM | A549 37 µM | ACHN 27.7 µM | MDA-MB-231 63.2 µM | OVCAR-3 40.6 µM | SF-539 27.4 µM | UACC-62 29.7 µM | SN12C 36.6 µM | NCI/ADR-RES 33.7 µM | HOP-62 74.3 µM | LOX IMVI 36.6 µM | OVCAR-5 16.7 µM | OVCAR-8 30.1 µM | EKVX 10.1 µM | HL-60 82 µM | DU-145 25 µM | MDA-MB-435 87.3 µM

COC(=O)C12C3C4C1C1C2C3C41C(=O)NC(C)(C)CC(=O)O (stereo unspecified)
inactive: MOLT-4 > 100 µM | SNB-19 > 100 µM | A549 > 100 µM | ACHN > 100 µM | MDA-MB-231 > 100 µM | OVCAR-3 > 100 µM | SF-539 > 100 µM | UACC-62 > 100 µM | SN12C > 100 µM | NCI/ADR-RES > 100 µM | HOP-62 > 100 µM | LOX IMVI > 100 µM | OVCAR-5 > 100 µM | OVCAR-8 > 100 µM | EKVX > 100 µM | RPMI-8226 > 100 µM | HL-60 > 100 µM | DU-145 > 100 µM | MDA-MB-435 > 100 µM
